Test: xn = mol fraction of the nth substance listed
Settings: Fluid (supercritical or subcritical phases), x2 = 0.901

CCCCC [pentane] + O=C=O
mass density [kg/m3]
Settings | 326.15 K | 328.15 K
8540 kPa | 461 | –
8560 kPa | 465 | –
8580 kPa | 469 | –
8610 kPa | 472 | –
8630 kPa | 476 | –
8650 kPa | – | 431
8670 kPa | 481 | –
8690 kPa | – | 436
8700 kPa | 486 | –
8720 kPa | – | 442
8740 kPa | 491 | –
8760 kPa | – | 448
8780 kPa | 496 | –
8830 kPa | – | 459
8840 kPa | 503 | –
8870 kPa | 509 | –
8880 kPa | – | 465
8920 kPa | 516 | –
8930 kPa | – | 473
8970 kPa | 520 | 475
9010 kPa | 524 | –
9030 kPa | – | 483
9080 kPa | 531 | –
9100 kPa | – | 491
9160 kPa | 538 | 499
9220 kPa | 544 | –
9230 kPa | – | 507
9320 kPa | – | 517
9350 kPa | 551 | –
9410 kPa | – | 524
9420 kPa | 558 | –
9500 kPa | 562 | –
9530 kPa | – | 533
9560 kPa | 567 | –
9630 kPa | – | 542
9680 kPa | 573 | –
9760 kPa | 579 | 552
9870 kPa | 583 | –
9930 kPa | – | 562
9990 kPa | 590 | –
10030 kPa | – | 568
10130 kPa | 595 | 572
10230 kPa | – | 579
10250 kPa | 601 | –
10350 kPa | – | 584
10380 kPa | – | 586
10410 kPa | 608 | –
10490 kPa | – | 590
10580 kPa | – | 594
10720 kPa | 618 | –
10750 kPa | – | 601
10880 kPa | – | 606
10920 kPa | 625 | –
11060 kPa | – | 612
11140 kPa | – | 614
11150 kPa | 631 | –
11380 kPa | 638 | –
11500 kPa | – | 625
11660 kPa | 645 | –
11670 kPa | – | 629
11800 kPa | – | 634
11950 kPa | 652 | –
11970 kPa | – | 639
12180 kPa | – | 642
12280 kPa | 658 | –
12340 kPa | – | 646
12560 kPa | – | 652
12630 kPa | 666 | –
12760 kPa | – | 655
13020 kPa | – | 661
13030 kPa | 673 | –
13280 kPa | – | 665
13480 kPa | 680 | –
13560 kPa | – | 669
13790 kPa | – | 674
13950 kPa | 686 | –
14260 kPa | – | 682
14540 kPa | 696 | –
14800 kPa | 700 | –
14810 kPa | – | 691
